Values of other authors in publication PMC3038857, “Using Nuclear Receptor Activity to Stratify Hepatocarcinogens” (PLoS ONE, 2011).
Read-outs that look alike come from different tables or passages of the source.

Columns and labels:
[1] = tested on: Mouse Liver; details: mouse chronic study, liver, coded 6 / Inf, ref ToxRefDB, cited from earlier work
[2] = tested on: Mouse Liver; details: mouse chronic study, liver, coded 6 / Inf, ref ToxRefDB, cited from earlier work; remark: listed apart in the source
[3] = tested on: Mouse Liver; details: mouse chronic study, liver, coded 6 / Inf, ref ToxRefDB, cited from earlier work; remark: listed apart in the source
[4] = tested on: Rat Liver; details: rat chronic study, liver, ref ToxRefDB, cited from earlier work
[5] = tested on: Rat Liver; details: rat chronic study, liver, ref ToxRefDB, cited from earlier work; remark: listed apart in the source
[6] = tested on: Rat Liver; details: rat chronic study, liver, ref ToxRefDB, cited from earlier work; remark: listed apart in the source
[7] = any lesion, code not explained in the table
[8] = preneoplastic lesion, code not explained in the table
[9] = neoplastic lesion, code not explained in the table
[10] = any lesion, coded 6 / 0, code not explained in the table
[11] = preneoplastic lesion, coded 6 / 0, code not explained in the table
[12] = neoplastic lesion, coded 6 / 0, code not explained in the table
[13] = coded 6 / 0, code not explained in table

SMILES | CHR_Mouse_Liver_1_AnyLesion [1, 7] | CHR_Mouse_Liver_2_PreneoplasticLesion [2, 8] | CHR_Mouse_Liver_3_NeoplasticLesion [3, 9] | CHR_Rat_Liver_1_AnyLesion [4, 10] | CHR_Rat_Liver_2_PreneoplasticLesion [5, 11] | CHR_Rat_Liver_3_NeoplasticLesion [6, 12] | CHR_Mouse_Liver_1_AnyLesion ([1]; code not explained in table) | CHR_Mouse_Liver_2_PreneoplasticLesion ([2]; code not explained in table) | CHR_Mouse_Liver_3_NeoplasticLesion ([3]; code not explained in table) | CHR_Rat_Liver_1_AnyLesion [4, 13] | CHR_Rat_Liver_2_PreneoplasticLesion [5, 13] | CHR_Rat_Liver_3_NeoplasticLesion [6, 13]
Cc1ccc(/N=C/N(C)/C=N/c2ccc(C)cc2C)c(C)c1 [Dataset S3 row 18] | 6 | 6 | 6 | 0 | 0 | 0 | – | – | – | – | – | –
CCCOC(=O)c1ccc(C(=O)OCCC)nc1 [Dataset S3 row 4] | 6 | 6 | 6 | 6 | 6 | 6 | – | – | – | – | – | –
COC(=O)NC(=S)Nc1ccccc1NC(=S)NC(=O)OC [chemical 301] | – | – | – | – | – | – | 6 | 6 | 6 | – | – | –
CCCCNC(=O)n1c(NC(=O)OC)nc2ccccc21 [Dataset S3 row 27] | 6 | 6 | 6 | – | – | – | – | – | – | – | – | –
Oc1ccccc1-c1ccccc1 [Dataset S3 row 5] | 6 | 6 | 6 | – | – | – | – | – | – | – | – | –
CS/C(C)=N/OC(=O)N(C)SN(C)C(=O)O/N=C(\C)SC [chemical 300] | – | – | – | – | – | – | 6 | 6 | 6 | 0 | 0 | 0
C=CC1(C)OC(=O)N(c2cc(Cl)cc(Cl)c2)C1=O (stereo not drawn) [chemical 319] | – | – | – | – | – | – | 6 | 6 | 6 | 6 | 6 | 6
